Data as given in ChEMBL document CHEMBL4483862, “Open-source discovery of chemical leads for next-generation chemoprotective antimalarials” (2018).

Test system: Plasmodium berghei
Assay: Luciferase/luciferin-expressing antifolate-resistant parasites were used to infect a culture of HepG2 cells that were pre-incubated with compounds. Infected hepatocytes emit light due to the luciferase reaction. Assay results are presented as the percent inhibition of light emission compared to control. […]
Format: functional
Conditions: sporozoite; for IC50: read-out: LUCIFERASE INFECTION ASSAY - IC50; for IC90: read-out: LUCIFERASE INFECTION ASSAY - IC90

| Compound | IC50 | IC90 |
| --- | --- | --- |
| Cc1cc(C)cc(C(=O)Nc2nc3ccccc3[nH]2)c1 | 7.33 µM | > 10 µM |
| CN(CCOc1ccc(Br)cc1)CC(O)COc1ccc(C#N)cc1 (stereo not drawn) | 8.69 µM | > 10 µM |
| COc1ccc(Nc2nc(CN3CCN(Cc4ccc(C#N)cc4)CC3)cs2)cc1 | > 10 µM | > 10 µM |
| CNS(=O)(=O)c1ccc(CNc2ncnc3cc(-c4ccc(OC)cc4)sc23)s1 | 0.653 µM | 2.1 µM |
| O=C(Nc1ccccc1)c1ccc(CN2CCN(CCOc3ccccc3)CC2)cc1 | 0.646 µM | 1.96 µM |
| Cc1noc2nc(C(C)C)cc(C(=O)Nc3nc4ccccc4[nH]3)c12 | > 10 µM | > 10 µM |
| O=S(=O)(NCCNc1cnccn1)c1ccc(OC(F)(F)F)cc1 | > 10 µM | > 10 µM |
| O=C(Nc1ccc(N2CCOCC2)cc1)c1ccccc1Nc1ccc(F)cc1 | > 10 µM | > 10 µM |
| NC(=O)NC(=O)C(Nc1ccc(Oc2ccccc2)cc1)c1ccccc1 (stereo not drawn) | > 10 µM | > 10 µM |
| N#Cc1ccc(CN2CCCN(c3ncnc4sccc34)CC2)cc1 | 1.67 µM | > 10 µM |
| CCCN(CC(=O)Nc1cc(Cl)ccc1Cl)CC(=O)Nc1sccc1C(N)=O | > 10 µM | > 10 µM |
| N#CCc1c(C#N)c(N)nc(Nc2ccc(F)cc2F)c1C#N | 3.64 µM | 6.78 µM |
| Cc1nn2c(nc(NCCCc3n[nH]c(N)c3C#N)c3ccccc32)c1Cl | > 10 µM | > 10 µM |
| N#Cc1ccnc(N2CCN(c3ncnc4scc(-c5ccccc5)c34)CC2)c1 | > 10 µM | > 10 µM |
| C#Cc1cccc(NC(=O)c2[nH]c(C)c(C(=O)OCC)c2C)c1 | > 10 µM | > 10 µM |
| Cc1sc2nc(-c3cccnc3)nc(NC3CCC(O)CC3)c2c1-c1ccccc1 (stereo not drawn) | > 10 µM | > 10 µM |
| c1ccc(-c2csc3ncnc(N4CCN(c5cnccn5)CC4)c23)cc1 | > 10 µM | > 10 µM |
| O=C(Nc1cccc(S(=O)(=O)Nc2ccc(Cl)cc2)c1)c1[nH]nc2ccccc12 | 8.98 µM | > 10 µM |
| Cc1ccc(Nc2nc(NCCO)c3ccccc3n2)cc1 | 4.79 µM | > 10 µM |
| Nc1nccnc1C(=O)Nc1nc2ccc(Oc3ccccc3)cc2s1 | > 10 µM | > 10 µM |
| Clc1ccc2c(Nc3ccc(N4CCOCC4)cc3)ccnc2c1 | > 10 µM | > 10 µM |
| Cc1noc(C)c1C(=O)Nc1nc(-c2c[nH]c3ccccc23)cs1 | > 10 µM | > 10 µM |
| O=C(CCc1c(-c2ccc(F)cc2)[nH]c2ccc(F)cc12)N1CCN(c2ccccn2)CC1 | 3.16 µM | 3.87 µM |

| Compound | IC50 | IC90 |
| --- | --- | --- |
| CC(=N)C(C#N)c1csc(NC(=O)c2cc(-c3ccccc3)nc3c2cnn3C(C)C)n1 (stereo not drawn) | 6.35 µM | 9.99 µM |
| CC(=O)c1ccc(OCC(O)CN2CCC(c3c[nH]c4ccccc34)CC2)cc1 (stereo not drawn) | 5.84 µM | > 10 µM |
| O=C(Nc1cccc(-c2nc3ccccc3[nH]2)c1)c1cccc(S(=O)(=O)N2CCCC2)c1 | > 10 µM | > 10 µM |
| CN(C)Cc1ccc(CNc2ncnc3scc(-c4ccccc4)c23)cc1 | 0.704 µM | 2.66 µM |
| O=C(Nc1nc(CN2CCOCC2)cs1)c1ccccc1Nc1ccccc1 | > 10 µM | > 10 µM |
| Cc1cccc(-n2cc(-c3ccccc3)c3c(N4CCN(CCO)CC4)ncnc32)c1 | > 10 µM | > 10 µM |
| Cc1cc(-c2csc(Nc3ccccn3)n2)c(C)n1-c1nccs1 | > 10 µM | > 10 µM |
| CC(C)n1ncc2cc(C(=O)Nc3nc4ccccc4s3)cnc21 | 0.00908 µM | 1.97 µM |
| COc1ccc2c(-c3ccccc3)cc(SCC(=O)Nc3sccc3C(N)=O)nc2c1 | 7.85 µM | 9.16 µM |
| Nc1nc(Sc2ncnc3ccsc23)nc2sccc12 | 9.85 µM | > 10 µM |
| O=C(Nc1ccc(CNc2ncnc3cc(Cl)ccc23)cc1)C1CC1 | 0.544 µM | 1.46 µM |
| Cc1ccc(CCC2CCN(C(C)C(=O)Nc3cccc(S(N)(=O)=O)c3)CC2)cc1 (stereo not drawn) | 6.94 µM | > 10 µM |
| O=S(=O)(c1ccc(N=C2NN=C(c3ccc4ccccc4c3)CS2)cc1)N1CCOCC1 | 4.82 µM | 9.33 µM |
| Cc1ccc(C(=O)NCc2ccc(-c3ccc(Cl)cc3)o2)cc1NC(=O)c1ccco1 | > 10 µM | > 10 µM |
| CNC(=O)c1cccc(NC(=O)c2cc(Cl)c[nH]2)c1 | > 10 µM | > 10 µM |
| COCCNc1nc(-c2c(-c3ccccc3)[nH]c3ccccc23)cs1 | > 10 µM | > 10 µM |
| COc1ccc(NC(=O)c2ccc(-n3cnc4ccccc43)cc2)cc1Cl | 8.58 µM | > 10 µM |
| CCS(=O)(=O)c1ccc2oc(NC(=O)C3CCC3)nc2c1 | > 10 µM | > 10 µM |
| Cc1cc(-c2cc(C(=O)NCCN3CCOCC3)c3cnn(C(C)C)c3n2)c(C)s1 | > 10 µM | > 10 µM |
| CC(C#N)Sc1nc(Nc2ccccc2)c2ccccc2n1 (stereo not drawn) | > 10 µM | > 10 µM |
| CCn1c(=O)c(=O)[nH]c2cc(C(=O)Nc3cccc(C#Cc4cccs4)c3)ccc21 | > 10 µM | > 10 µM |
| O=C(CN1CCN(Cc2csc(Nc3cccc(C(F)(F)F)c3)n2)CC1)N1CCCC1 | > 10 µM | > 10 µM |
| CN(CC(=O)Nc1ccc(Cl)c(C(F)(F)F)c1)CC(=O)Nc1ccc(Cl)cn1 | > 10 µM | > 10 µM |

| Compound | IC50 | IC90 |
| --- | --- | --- |
| Cc1ccc(NC(=O)c2cc(-c3ccc4c(c3)OCCO4)nc3c2cnn3C(C)C)nc1 | > 10 µM | > 10 µM |
| Clc1ccccc1Oc1ccc(Nc2ccc3nnnn3n2)cc1 | > 10 µM | > 10 µM |
| CCN(CC)CCn1c(NC(=O)c2cc(C(C)=O)c[nH]2)nc2ccccc21 | 1.82 µM | > 10 µM |
| COc1cc2nc(-c3ccccc3)nc(N3CCN(c4ccncc4)CC3)c2cc1OC | > 10 µM | > 10 µM |
| COc1ccc(-c2csc3ncnc(NCCC(C)C)c23)cc1 | > 10 µM | > 10 µM |
| Cc1ccc(F)c(Nc2ncnc3sccc23)c1 | > 10 µM | > 10 µM |
| COc1cc(Nc2ncnc3ccsc23)cc(OC)c1 | 0.968 µM | 2.61 µM |
| CC(=O)c1c[nH]c(C(=O)Nc2nc(C)c(-c3ccccn3)s2)c1 | > 10 µM | > 10 µM |
| CCc1cccc2c(C3=CCN(c4ncnc5c4cnn5C)CC3)c[nH]c12 | > 10 µM | > 10 µM |
| Fc1ccc(-c2cc3ncnc(NC4CC4)c3s2)cc1 | > 10 µM | > 10 µM |
| Clc1ccc2c(Sc3nnc4ccccn34)ccnc2c1 | > 10 µM | > 10 µM |
| Cc1cc(-c2cc(C(=O)NCc3ccc(Cn4cncn4)cc3)c3cnn(C(C)C)c3n2)c(C)s1 | > 10 µM | > 10 µM |
| CS(=O)(=O)Nc1ccc(-c2csc(NC(=O)c3ccc4ncsc4c3)n2)cc1 | > 10 µM | > 10 µM |
| O=C(Nc1ccc2c(c1)OC(F)(F)O2)c1ccc(F)c(F)c1 | 9.62 µM | > 10 µM |
| O=C(Nc1ncccc1O)c1ccc(-c2ccccc2)cc1 | 4.59 µM | 8 µM |
| CC(C)n1ncc2cc(C(=O)Nc3nc(-c4ccccn4)cs3)cnc21 | 1.07 µM | 2.1 µM |
| COc1cc(C(=O)Nc2nc3ccccc3[nH]2)ccc1C | 5.35 µM | 8.73 µM |
| O=C(Cc1c(F)cccc1Cl)Nc1ccccc1-c1nc2ccccc2[nH]1 | 1.73 µM | 7.35 µM |
| COc1ccc(-c2cc3ncnc(NCc4ccc(S(=O)(=O)N5CCCC5)s4)c3s2)cc1 | 3.52 µM | 4.46 µM |
| CNC(=O)NC(=O)CNc1ccc(C(F)(F)F)cc1 | > 10 µM | > 10 µM |
| O=C(Nc1ncc(Cc2cccc(Cl)c2Cl)s1)c1ccncc1 | 3.27 µM | 7.55 µM |
| Cc1sc2nc(CN3CCCC3)nc(Oc3ccc4ccncc4c3)c2c1C | 9.51 µM | > 10 µM |
| Cc1cc(C(=O)Nc2nc3ccccc3[nH]2)c(C)s1 | > 10 µM | > 10 µM |

| Compound | IC50 | IC90 |
| --- | --- | --- |
| NS(=O)(=O)c1ccc(CCNc2cc(-c3ccccc3)c3cc4c(cc3n2)OCCO4)cc1 | 3.43 µM | 6.08 µM |
| Cn1nnnc1Sc1ncnc2cc(-c3ccc(F)cc3)sc12 | > 10 µM | > 10 µM |
| O=C(OCC1CCCCC1)c1[nH]nc2ccccc12 | > 10 µM | > 10 µM |
| CN1CCN(c2nc(-c3c(-c4ccc(F)cc4)[nH]c4ccccc34)cs2)CC1 | > 10 µM | > 10 µM |
| Cc1ccccc1CNc1ncnc2sccc12 | 5.22 µM | > 10 µM |
| COc1cc(CNc2ncnc3sc(-c4ccccc4)cc23)ccn1 | 8.74 µM | > 10 µM |
| CC(C)n1ncc2c(C(=O)NCCCn3ccc4ccccc43)cc(C3CC3)nc21 | > 10 µM | > 10 µM |
| Clc1ccc2c(NCc3ccc(N4CCOCC4)nc3)ncnc2c1 | > 10 µM | > 10 µM |
| c1ccc(C(Nc2ncnc3ccsc23)c2cccs2)cc1 (stereo not drawn) | 1.14 µM | 2.58 µM |
| Nc1nccnc1C(=O)Nc1nnc(-c2cccc(Br)c2)[nH]1 | > 10 µM | > 10 µM |
| CCN(CC)S(=O)(=O)c1ccc(-c2csc(Nc3ccccn3)n2)cc1 | > 10 µM | > 10 µM |
| NC(=O)c1cc(-c2ccccc2)sc1NC(=O)Nc1ccccc1F | 9.4 µM | > 10 µM |
| O=C(Nc1ccc(N2CCOCC2)cc1)c1cccc(-c2nn[nH]n2)c1 | > 10 µM | > 10 µM |
| c1ccc(-c2cc3c(NCc4ccccc4CN4CCOCC4)ncnc3s2)cc1 | > 10 µM | > 10 µM |
| CCN1CCC(N(C)c2ncnc3sc(-c4ccccc4)cc23)CC1 | > 10 µM | > 10 µM |
| O=C(c1cnc2cc3c(cc2c1)OCCCO3)c1cc(F)ccc1O | 3.12 µM | 3.65 µM |
| N#Cc1ccsc1NC(=O)CCN1CCN(Cc2c(F)cccc2Cl)CC1 | > 10 µM | > 10 µM |
| CC1SC(=Nc2ccc(S(=O)(=O)N3CCOCC3)cc2)NN=C1C12CC3CC(CC(C3)C1)C2 (stereo not drawn) | > 10 µM | > 10 µM |
| CC(Nc1ncnc2ccsc12)c1cccc2ccccc12 (stereo not drawn) | 2.13 µM | > 10 µM |
| CCCn1c(NC(=O)c2ccc3ncsc3c2)nc2ccccc21 | 8.47 µM | 9.62 µM |
